Assay results published in patent US7094423B1, “Methods for preparation of lipid-encapsulated therapeutic agents” (INEX Pharmaceuticals Corp., priority 1999, dated 2006).

Key:
[1] = Leakage experiments: ethanol-induced permeabilization of LUVs; type: physicochemical; conditions: DSPC/Chol/PEG-CerC14/DODAP liposomes, 40° C.
Method: Leakage experiments. Ethanol-induced permeabilization of LUVs was measured at different temperatures and as a function of the size (MW) of the entrapped solute. […] Leakage of calcein entrapped at self-quenching concentrations was followed by monitoring the dequenching of the calcein fluorescence. LUVs were prepared by hydration of a lipid film with an aqueous solution containing 75 mM calcein and 5 mM HEPES adjusted to pH 7.5 by addition of sodium hydroxide, followed by 5 freeze/thaw cycles and extrusion through 2 stacked 100 nm filters (10 passes). In the case of […] extrusion was performed at 60° C. Unentrapped calcein was exchanged against an isoosmotic HBS buffer by anion exchange chromatography on a DEAE Sepharose CL6B column. The liposome stock solution was diluted to a lipid concentration of 3 μM in HBS containing varying amounts of ethanol pre-equilibrated at 25, 40 or 60° C. The fluorescence at 520 nm was measured (excitation wavelength […], long-pass filter at 430 nm) with a Perkin Elmer LS50 Fluorimeter (Perkin Elmer) after 5 min of incubation at the corresponding temperature. […] The FITC/LRh-PE ratio was measured before and after addition of ethanol. FITC and LRh-PE fluorescence were measured at 515 nm and 590 nm with the excitation wavelength set to 485 nm and 560 nm, respectively.

[2] = Trapping efficiency of oligonucleotide in liposomes after anion exchange chromatography; type: physicochemical; conditions: DSPC/Chol/DODAP/PEG-CerC14 liposomes; initial ATP-to-lipid ratio 0.2 mg/mg; 50 mM citrate buffer

| SMILES | ethanol concentration at which leakage reaches a maximum [1] | ethanol concentration at which leakage starts [1] [% ethanol] | fraction entrapped [2] |
| --- | --- | --- | --- |
| O=C(O)CN(CC(=O)O)Cc1cc2c(cc1O)Oc1cc(O)c(CN(CC(=O)O)CC(=O)O)cc1C21OC(=O)c2ccccc21 [calcein] | around 40 % ethanol | ≤ 30 | – |
| Nc1ncnc2c1ncn2[C@@H]1O[C@H](COP(=O)(O)OP(=O)(O)OP(=O)(O)O)[C@@H](O)[C@H]1O [ATP] | – | – | less than 10% |
